Measured values published in PubChem BioAssay (NCI).
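Method: 48-hour compound exposure of cells in 96-well plates, five concentrations, linear interpolation of endpoints. TGI: total growth inhibition.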

Experiments:
Test in all cases: NCI tumour cell line growth inhibition, 48 h
KM20L2 colon = test system: KM20L2 colon
CAKI-1 renal = test system: CAKI-1 renal
SK-MEL-5 melanoma = test system: SK-MEL-5 melanoma
SNB-78 CNS = test system: SNB-78 CNS
A498 renal = test system: A498 renal
SW-620 colon = test system: SW-620 colon
SN12C renal = test system: SN12C renal
M14 melanoma = test system: M14 melanoma
RXF-631 renal = test system: RXF-631 renal
DLD-1 colon = test system: DLD-1 colon
HL-60(TB) leukemia = test system: HL-60(TB) leukemia
IGROV1 ovarian = test system: IGROV1 ovarian
MOLT-4 leukemia = test system: MOLT-4 leukemia
HCC-2998 colon = test system: HCC-2998 colon
A549 NSCLC = test system: A549 NSCLC
HT29 colon = test system: HT29 colon
786-0 renal = test system: 786-0 renal
SF-295 CNS = test system: SF-295 CNS
SR leukemia = test system: SR leukemia
HOP-18 NSCLC = test system: HOP-18 NSCLC
MALME-3M melanoma = test system: MALME-3M melanoma
NCI-H460 lung = test system: NCI-H460 lung
U251 CNS = test system: U251 CNS
SK-OV-3 ovarian = test system: SK-OV-3 ovarian
SF-268 CNS = test system: SF-268 CNS
EKVX NSCLC = test system: EKVX NSCLC
LXFL 529 NSCLC = test system: LXFL 529 NSCLC
ACHN renal = test system: ACHN renal
M19-MEL melanoma = test system: M19-MEL melanoma
UO-31 renal = test system: UO-31 renal
UACC-257 melanoma = test system: UACC-257 melanoma
XF 498 CNS = test system: XF 498 CNS
KM12 colon = test system: KM12 colon
UACC-62 melanoma = test system: UACC-62 melanoma
HOP-62 NSCLC = test system: HOP-62 NSCLC
DMS 273 small cell lung = test system: DMS 273 small cell lung
LOX IMVI melanoma = test system: LOX IMVI melanoma
SNB-19 CNS = test system: SNB-19 CNS
TK-10 renal = test system: TK-10 renal
HCT-116 colon = test system: HCT-116 colon
NCI-H23 lung = test system: NCI-H23 lung
CCRF-CEM leukemia = test system: CCRF-CEM leukemia
K-562 leukemia = test system: K-562 leukemia
COLO 205 colon = test system: COLO 205 colon
OVCAR-5 ovarian = test system: OVCAR-5 ovarian
RPMI-8226 leukemia = test system: RPMI-8226 leukemia
OVCAR-8 ovarian = test system: OVCAR-8 ovarian
NCI-H226 lung = test system: NCI-H226 lung
SNB-75 CNS = test system: SNB-75 CNS
RXF 393 renal = test system: RXF 393 renal
OVCAR-3 ovarian = test system: OVCAR-3 ovarian
NCI-H522 lung = test system: NCI-H522 lung
DMS 114 small cell lung = test system: DMS 114 small cell lung
SF-539 CNS = test system: SF-539 CNS
SK-MEL-2 melanoma = test system: SK-MEL-2 melanoma
SK-MEL-28 melanoma = test system: SK-MEL-28 melanoma
OVCAR-4 ovarian = test system: OVCAR-4 ovarian

Question: Which TGI (KM20L2 colon) does the source give for `Oc1ccc([Te]CCNCC[Te]c2ccc(O)cc2)cc1` here?
Answer: 55.1 µM

Question: And the TGI (CAKI-1 renal)?
Answer: > 100 µM

Question: And the TGI (SK-MEL-5 melanoma)?
Answer: 26.4 µM

Question: What about the TGI (SNB-78 CNS) of the same compound?
Answer: 78.6 µM

Question: And the TGI (A498 renal)?
Answer: 46.6 µM

Question: And the TGI (SW-620 colon)?
Answer: > 100 µM

Question: And the TGI (SN12C renal)?
Answer: > 100 µM

Question: And the TGI (M14 melanoma)?
Answer: 55.3 µM

Question: And the TGI (RXF-631 renal)?
Answer: 90.2 µM

Question: What about the TGI (DLD-1 colon) of the same compound?
Answer: > 100 µM

Question: And the TGI (HL-60(TB) leukemia)?
Answer: 38.5 µM

Question: What about the TGI (IGROV1 ovarian) of the same compound?
Answer: > 100 µM

Question: What about the TGI (MOLT-4 leukemia) of the same compound?
Answer: > 100 µM

Question: What about the TGI (HCC-2998 colon) of the same compound?
Answer: 38.2 µM

Question: What about the TGI (A549 NSCLC) of the same compound?
Answer: 16.6 µM

Question: What about the TGI (HT29 colon) of the same compound?
Answer: > 100 µM

Question: What about the TGI (786-0 renal) of the same compound?
Answer: > 100 µM

Question: What about the TGI (SF-295 CNS) of the same compound?
Answer: 75.4 µM

Question: What about the TGI (SR leukemia) of the same compound?
Answer: > 100 µM

Question: What about the TGI (HOP-18 NSCLC) of the same compound?
Answer: 66.5 µM

Question: And the TGI (MALME-3M melanoma)?
Answer: 69.3 µM

Question: What about the TGI (NCI-H460 lung) of the same compound?
Answer: 33.9 µM

Question: What about the TGI (U251 CNS) of the same compound?
Answer: 25.6 µM

Question: And the TGI (SK-OV-3 ovarian)?
Answer: 98.9 µM

Question: And the TGI (SF-268 CNS)?
Answer: > 100 µM

Question: And the TGI (EKVX NSCLC)?
Answer: 19 µM

Question: And the TGI (LXFL 529 NSCLC)?
Answer: 32 µM

Question: What about the TGI (ACHN renal) of the same compound?
Answer: 94.8 µM

Question: What about the TGI (M19-MEL melanoma) of the same compound?
Answer: 50.5 µM

Question: What about the TGI (UO-31 renal) of the same compound?
Answer: 31.7 µM

Question: What about the TGI (UACC-257 melanoma) of the same compound?
Answer: > 100 µM

Question: And the TGI (XF 498 CNS)?
Answer: 39.2 µM

Question: And the TGI (KM12 colon)?
Answer: > 100 µM

Question: And the TGI (UACC-62 melanoma)?
Answer: 45.8 µM

Question: And the TGI (HOP-62 NSCLC)?
Answer: 46.5 µM

Question: What about the TGI (DMS 273 small cell lung) of the same compound?
Answer: > 100 µM

Question: And the TGI (LOX IMVI melanoma)?
Answer: 43 µM

Question: And the TGI (SNB-19 CNS)?
Answer: > 100 µM

Question: And the TGI (TK-10 renal)?
Answer: 90.7 µM

Question: What about the TGI (HCT-116 colon) of the same compound?
Answer: 28.4 µM

Question: What about the TGI (NCI-H23 lung) of the same compound?
Answer: 23.2 µM

Question: And the TGI (CCRF-CEM leukemia)?
Answer: > 100 µM

Question: And the TGI (K-562 leukemia)?
Answer: > 100 µM

Question: And the TGI (COLO 205 colon)?
Answer: 22.4 µM

Question: What about the TGI (OVCAR-5 ovarian) of the same compound?
Answer: 37.7 µM

Question: And the TGI (RPMI-8226 leukemia)?
Answer: > 100 µM

Question: What about the TGI (OVCAR-8 ovarian) of the same compound?
Answer: 48 µM

Question: What about the TGI (NCI-H226 lung) of the same compound?
Answer: 46.4 µM

Question: And the TGI (SNB-75 CNS)?
Answer: 70.8 µM

Question: With `COC1OC(CO)C(O)C(OC(C)=O)C1NC(=O)N(CCCl)N=O` (stereo unspecified) as the compound, how does the TGI (RXF 393 renal) read?
Answer: > 100 µM

Question: And the TGI (KM20L2 colon)?
Answer: > 100 µM

Question: And the TGI (CAKI-1 renal)?
Answer: > 100 µM

Question: What about the TGI (SK-MEL-5 melanoma) of the same compound?
Answer: > 100 µM

Question: And the TGI (SNB-78 CNS)?
Answer: > 100 µM

Question: What about the TGI (A498 renal) of the same compound?
Answer: > 100 µM

Question: And the TGI (OVCAR-3 ovarian)?
Answer: > 100 µM

Question: And the TGI (SW-620 colon)?
Answer: > 100 µM

Question: And the TGI (SN12C renal)?
Answer: > 100 µM

Question: And the TGI (M14 melanoma)?
Answer: > 100 µM

Question: And the TGI (RXF-631 renal)?
Answer: > 100 µM

Question: And the TGI (DLD-1 colon)?
Answer: > 100 µM

Question: What about the TGI (HL-60(TB) leukemia) of the same compound?
Answer: > 100 µM

Question: What about the TGI (IGROV1 ovarian) of the same compound?
Answer: > 100 µM

Question: What about the TGI (MOLT-4 leukemia) of the same compound?
Answer: > 100 µM

Question: What about the TGI (HCC-2998 colon) of the same compound?
Answer: > 100 µM

Question: And the TGI (A549 NSCLC)?
Answer: > 100 µM

Question: What about the TGI (HT29 colon) of the same compound?
Answer: > 100 µM

Question: And the TGI (NCI-H522 lung)?
Answer: > 100 µM

Question: What about the TGI (786-0 renal) of the same compound?
Answer: > 100 µM

Question: And the TGI (SF-295 CNS)?
Answer: > 100 µM

Question: And the TGI (HOP-18 NSCLC)?
Answer: > 100 µM

Question: And the TGI (MALME-3M melanoma)?
Answer: > 100 µM

Question: And the TGI (DMS 114 small cell lung)?
Answer: > 100 µM

Question: What about the TGI (NCI-H460 lung) of the same compound?
Answer: > 100 µM

Question: And the TGI (SK-OV-3 ovarian)?
Answer: > 100 µM

Question: And the TGI (SF-268 CNS)?
Answer: > 100 µM

Question: And the TGI (EKVX NSCLC)?
Answer: > 100 µM

Question: And the TGI (LXFL 529 NSCLC)?
Answer: > 100 µM

Question: And the TGI (ACHN renal)?
Answer: > 100 µM

Question: And the TGI (M19-MEL melanoma)?
Answer: > 100 µM

Question: And the TGI (UACC-257 melanoma)?
Answer: > 100 µM

Question: And the TGI (XF 498 CNS)?
Answer: > 100 µM

Question: And the TGI (KM12 colon)?
Answer: > 100 µM

Question: What about the TGI (UACC-62 melanoma) of the same compound?
Answer: > 100 µM

Question: And the TGI (DMS 273 small cell lung)?
Answer: > 100 µM

Question: What about the TGI (LOX IMVI melanoma) of the same compound?
Answer: > 100 µM

Question: What about the TGI (SNB-19 CNS) of the same compound?
Answer: > 100 µM

Question: What about the TGI (TK-10 renal) of the same compound?
Answer: > 100 µM

Question: What about the TGI (HCT-116 colon) of the same compound?
Answer: > 100 µM

Question: What about the TGI (NCI-H23 lung) of the same compound?
Answer: > 100 µM

Question: What about the TGI (SF-539 CNS) of the same compound?
Answer: > 100 µM

Question: And the TGI (CCRF-CEM leukemia)?
Answer: > 100 µM

Question: What about the TGI (SK-MEL-2 melanoma) of the same compound?
Answer: 8.75 µM

Question: And the TGI (K-562 leukemia)?
Answer: > 100 µM

Question: And the TGI (COLO 205 colon)?
Answer: > 100 µM

Question: And the TGI (SK-MEL-28 melanoma)?
Answer: > 100 µM

Question: What about the TGI (OVCAR-5 ovarian) of the same compound?
Answer: > 100 µM

Question: And the TGI (OVCAR-8 ovarian)?
Answer: > 100 µM

Question: And the TGI (OVCAR-4 ovarian)?
Answer: > 100 µM

Question: What about the TGI (NCI-H226 lung) of the same compound?
Answer: > 100 µM

Question: And the TGI (SNB-75 CNS)?
Answer: > 100 µM
